Several values for one entry are separate records, joined by “and”; a condition that tells them apart may be missing. Identical values can stand only once. Like-named read-outs stand apart in the source and are kept apart here.
Key:
[1] = tested on: beta amyloid production; assay: Repressor Release Assay (RRA); format: cell-based; settings: for fold induction at 20 µg/mL / fold induction at 10 µg/mL: read-out: APPI Fold Increase; for APPI % of Example #98: relative to Example 98
Summary of the method: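 CHO-K1 cells transiently co-transfected with pRSVO-luc and an APP-lacI construct, replated, then treated in duplicate for 36-48 h at 37 °C, 5% CO2. Compounds diluted in 25 mM Hepes, with Hepes/1% DMSO as diluent control. Luciferase read-out in relative light units; toxicity scored 1 non-toxic, 0 toxic.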

[2] = tested on: CHO-K1 cells; assay: Toxicity in RRA (loss of luciferase signal); settings: toxicity = loss of signal (<0.75 fold increase)
Procedure: The beta amyloid inhibitory activity of the compounds of the present invention was determined using the Repressor Release Assay (RRA).
“Fold Increase” refers to the amount of luciferase activity (measured in relative light units) over diluent control. “SEM” refers to the standard error of the mean for fold increase.

[3] = Conc 20 μg/ml, luciferase activity over diluent control
[4] = Conc 10 μg/ml, luciferase activity over diluent control
[5] = Conc 20 μg/ml, luciferase activity (RLU) over diluent control
[6] = Conc 20 μg/ml, 1=non-toxic, 0=toxic

Compound	fold induction at 20 µg/mL [1, 3]	(%)APPI Toxicity ([2]; Conc 20 μg/ml)	(%)APPI Toxicity ([2]; Conc 10 μg/ml)	fold induction at 10 µg/mL [1, 4]	other results
CC(C)(C)[C@@H](CO)NS(=O)(=O)c1c(Cl)cc(Cl)cc1Cl [Example 32, 2,4,6-trichloro-N-[(1 S)-1-(hydroxymethyl)-2,2-dimethylpropyl]benzenesulfonamide]	2.2	1 (1=non-toxic)	–	–	–
CC[C@H](C)[C@H](NS(=O)(=O)c1ccccc1F)C(O)c1ccc(OC)cc1 (stereo partly drawn) [Example 209, 2-fluoro-N-{(1S,2S)-1-[hydroxy(4-methoxyphenyl)methyl]-2-methylbutyl} benzenesulfonamide]	–	–	1 (1=non-toxic)	–	APPI Fold Increase [1, 4]: 1.81 fold; APPI % of Example #98 ([1]; Conc 10 μg/ml): 88.04%
CCCCCC[C@@H](C)[C@@H](CO)NS(=O)(=O)c1ccc(Cl)cc1 [Example 50, 4-chloro-N-[(1S,2R)-1-(hydroxymethyl)-2-methyloctyl]benzenesulfonamide]	2.5	1 (1=non-toxic)	–	–	–
CC[C@H](C)[C@H](NS(=O)(=O)c1cccc(Cl)c1)C(O)CCC1OCCCO1 (stereo partly drawn) [Example 199, 3-chloro-N-{(1S)-4-(1,3-dioxan-2-yl)-2-hydroxy-1-[(1S)-1-methylpropyl]butyl}benzenesulfonamide]	–	–	1 (1=non-toxic)	1.61	–
3-chloro-N-{(1S,3E)-2-hydroxy-3-methyl-2-[(1 F)-1-methyl-1-propenyl]-1-[(1S)-1-methylpropyl]-3-pentenyl}benzenesulfonamide [Example 259]	–	1 (1=non-toxic)	1 (1=non-toxic)	–	APPI Fold Increase ([1]; Conc 0.3 μg/ml, luciferase activity over diluent control): 1.7 fold; APPI % of Example #98 ([1]; Conc 0.3 μg/ml): 31.1%; APPI Fold Increase ([1]; Conc 1 μg/ml, luciferase activity over diluent control): 1.7 fold; APPI % of Example #98 ([1]; Conc 1 μg/ml): 31.1%; APPI Fold Increase ([1]; Conc 3 μg/ml, luciferase activity over diluent control): 1.7 fold; APPI % of Example #98 ([1]; Conc 3 μg/ml): 31.5%; APPI Fold Increase [1, 4]: 2.19 fold and 1.6 fold and 1.7 fold; APPI Fold Increase [1, 3]: 4.4 fold; APPI % of Example #98 ([1]; Conc 20 μg/ml): 119.7%; (%)APPI Toxicity ([2]; Conc 0.3 μg/ml): 1 (1=non-toxic); (%)APPI Toxicity ([2]; Conc 1 μg/ml): 1 (1=non-toxic); (%)APPI Toxicity ([2]; Conc 3 μg/ml): 1 (1=non-toxic)
C=C(C)C(O)(C(=C)C)[C@@H](NS(=O)(=O)c1ccc(Br)cc1)[C@@H](C)CC [Example 219, 4-bromo-N-{(1S)-2-hydroxy-2-isopropenyl-3-methyl-1-[(1S)-1-methylpropyl]-3-butenyl}benzenesulfonamide]	2.8	1 (1=non-toxic)	1 (1=non-toxic)	1.8	–
C=C(C)C(O)(C(=C)C)[C@@H](NS(=O)(=O)c1ccccc1F)[C@@H](C)CC [Example 268, 2-fluoro-N-{(1S)-2-hydroxy-2-isopropenyl-3-methyl-1-[(1S)-1-methylpropyl]-3-butenyl}benzenesulfonamide]	–	–	1 (1=non-toxic)	1.75	–
CCCCC(O)[C@@H](NS(=O)(=O)c1ccccc1F)[C@@H](C)CC (stereo partly drawn) [Example 205, 2-fluoro-N-{(1S)-2-hydroxy-1-[(1S)-1-methylpropyl]hexyl}benzenesulfonamide]	–	–	1 (1=non-toxic)	1.72	–
C[C@@H](c1ccco1)[C@@H](CO)NS(=O)(=O)c1ccc(Br)cc1 [Example 84, 4-bromo-N-[(1S,2R)-2-(2-furyl)-1-(hydroxymethyl)propyl]benzenesulfonamide]	–	–	–	–	fold induction at 20 µg/mL [1, 5]: 3.4; (%)APPI Toxicity [2, 6]: 1 (1=non-toxic)
CC[C@H](C)[C@@H](CO)NS(=O)(=O)c1cc(Cl)c(Cl)cc1Cl [Example 25, 2,4,5-trichloro-N-[(1S,2S)-1-(hydroxymethyl)-2-methylbutyl]benzenesulfonamide]	1.8	1 (1=non-toxic)	–	–	–
CC(C)C[C@H](CO)NS(=O)(=O)c1ccc(Br)cc1 [Example 102, 4-bromo-N-[(1R)-1-(hydroxymethyl)-3-methylbutyl]benzenesulfonamide]	1.5	1 (1=non-toxic)	–	–	–
CC[C@H](C)[C@H](NS(=O)(=O)c1ccc(Br)cc1)C(O)(c1cccc2ccccc12)c1cccc2ccccc12 [Example 222, 4-bromo-N-((1S,2S)-1-{hydroxy[di(1-naphthyl)]methyl}-2-methylbutyl) benzenesulfonamide]	–	–	1 (1=non-toxic)	–	APPI Fold Increase [1, 4]: 1.59 fold; APPI % of Example #98 ([1]; Conc 10 μg/ml): 54.46%
CC(C)C[C@@H](c1ccco1)[C@@H](CO)NS(=O)(=O)c1ccc(Cl)cc1 [Example 67, 4-chloro -N-[(1S,2R)-2-(2-furyl)-1-(hydroxymethyl)-4-methylpentyl]benzenesulfonamide]	–	–	–	–	fold induction at 20 µg/mL [1, 5]: 3.9; (%)APPI Toxicity [2, 6]: 1 (1=non-toxic)
C=CCCC(O)(CCC=C)[C@@H](NS(=O)(=O)c1ccc(F)cc1)[C@@H](C)CC [Example 246, N-{(1S)-2-(3-butenyl)-2-hydroxy-1-[(1S)-1-methylpropyl]-5-hexenyl}-4-fluorobenzenesulfonamide]	1.9	1 (1=non-toxic)	1 (1=non-toxic)	2.42	–
CC[C@H](C)[C@H](NS(=O)(=O)c1ccc(Br)cc1)C(O)CCC1OCCCO1 (stereo partly drawn) [Example 160, 4-bromo-N-{(1S)-4-(1,3-dioxan-2-yl)-2-hydroxy-1-[(1S)-1-methylpropyl]butyl} benzenesulfonamide]	–	–	1 (1=non-toxic)	–	APPI Fold Increase [1, 4]: 1.66 fold; APPI % of Example #98 ([1]; Conc 10 μg/ml): 73.83%
O=S(=O)(N[C@H](CO)Cc1ccccc1)c1ccc(Br)cc1 [Example 15, N-[(1S)-1-benzyl-2-hydroxyethyl]-4-bromobenzenesulfonamide]	1.5	1 (1=non-toxic)	–	–	–
CC[C@H](C)[C@H](NS(=O)(=O)c1cccc(Cl)c1)C(O)(c1ccc(Cl)cc1)c1ccc(Cl)cc1 [Example 256, N-{(1S,2S)-1-[bis(4-chlorophenyl)(hydroxy)methyl]-2-methylbutyl}-3-chloro benzenesulfonamide]	–	–	1 (1=non-toxic)	–	APPI Fold Increase [1, 4]: 1.5 fold; APPI % of Example #98 ([1]; Conc 10 μg/ml): 55.91%
C[C@@H](NS(=O)(=O)c1ccc(Br)cc1)[C@@H](O)c1ccccc1 [Example 100, 4-bromo-N-[(1R,2S)-2-hydroxy-1-methyl-2-phenylethyl] benzenesulfonamide]	–	1 (1=non-toxic)	–	–	APPI Fold Increase [1, 3]: 1.6 fold; APPI % of Example #98 ([1]; Conc 20 μg/ml): 41%
O=S(=O)(N[C@H](CO)Cc1ccccc1)c1ccccc1F [Example 118, N-[(1S)-1-benzyl-2-hydroxyethyl]-2-fluorobenzenesulfonamide]	1.6	1 (1=non-toxic)	–	–	–
CC[C@H](C)[C@@H](CO)NS(=O)(=O)c1cccc2ccccc12 [Example 12, N-[(1S,2S)-1-(hydroxymethyl)-2-methylbutyl]naphthalene-1-sulfonamide]	2.9	1 (1=non-toxic)	–	–	–
CCCCC(O)(CCCC)[C@@H](NS(=O)(=O)c1ccc(F)cc1)[C@@H](C)CC [Example 238, N-{(1S)-2-butyl-2-hydroxy-1-[(1S)-1-methylpropyl]hexyl}-4-fluorobenzenesulfonamide]	–	–	1 (1=non-toxic)	4.5	–
CC[C@H](C)[C@H](NS(=O)(=O)c1cccc(Cl)c1)C(O)CC(C)C (stereo partly drawn) [Example 192, 3-chloro-N-{(1S)-2-hydroxy-4-methyl-1-[(1S)-1-methylpropyl]pentyl}benzenesulfonamide]	–	–	1 (1=non-toxic)	2.21	–
CC[C@H](C)[C@H](NS(=O)(=O)c1ccc(F)cc1)C(O)(CC(C)C)CC(C)C [Example 240, 4-fluoro-N-{(1S)-2-hydroxy-2-isobutyl-4-methyl-1-[(1S)-1-methylpropyl]pentyl}benzenesulfonamide]	–	–	1 (1=non-toxic)	3.82	–
CC[C@H](c1ccc(OC)cc1)[C@@H](CO)NS(=O)(=O)c1ccc(Br)cc1 [Example 74, 4-bromo-N-[(1S,2R)-1-(hydroxymethyl)-2-(4-methoxyphenyl)butyl]benzenesulfonamide]	–	–	–	–	fold induction at 20 µg/mL [1, 5]: 2.5; (%)APPI Toxicity [2, 6]: 1 (1=non-toxic)
CC[C@H](C)[C@@H](CO)NS(=O)(=O)c1ccc2ccccc2c1 [Example 13, N-[(1S,2S)-1-(hydroxymethyl)-2-methylbutyl]naphthalene-2-sulfonamide]	1.8	1 (1=non-toxic)	–	–	–

Source: patent publication US7166622B2, “Substituted phenylsulfonamide inhibitors of beta amyloid production” (Wyeth, priority 2002, dated 2007)
